Test results published in patent publication US4894458A, “Quinolonecarboxylic acid derivatives and their preparation” (Kyorin Pharmaceutical Co., Ltd., priority 1986, dated 1990).
Converted amounts (≈) assume the structure as drawn. Read-outs that look alike come from different tables or passages of the source.

Experiments:
Type in all cases: cell-based
[1] = system: B. thetaiotaomicron (0661); assay: In vitro antibacterial activity (anaerobic bacteria), MIC; settings: Bacteroides thetaiotaomicron
[2] = system: Bacteroides fragilis GM 7000; assay: as above
P. cepacia GIFU 518 = assay: In vitro antibacterial activity (aerobic bacteria), MIC; settings: Burkholderia cepacia, GIFU518, aerobic, Gram -, 10^6 cells/ml
[3] = system: Veillonella parvula KYA 10790; assay: In vitro antibacterial activity (anaerobic bacteria), MIC
P. maltophilia GIFU 2491 = assay: In vitro antibacterial activity (aerobic bacteria), MIC; settings: Stenotrophomonas maltophilia, GIFU2491
[4] = system: Fusobacterium necrophorum S-45; assay: In vitro antibacterial activity (anaerobic bacteria), MIC; settings: S45, anaerobic, Gram -, 10^6 cells/ml, read-out: MIC
[5] = system: Yersinia enterocolitica IID 981; assay: microbe, parasite or virus in culture; settings: IID981
[6] = system: Salmonella enteritidis IID 604; assay: In vitro antibacterial activity (aerobic bacteria), MIC; settings: Salmonella enterica
[7] = system: Eubacterium lentum GAI 5242; assay: In vitro antibacterial activity (anaerobic bacteria), MIC; settings: Eggerthella lenta, GAI5242
[8] = system: Propionibacterium acens 11828; assay: as above
[9] = system: Klebsiella pneumoniae KY(GN)6445; assay: In vitro antibacterial activity (aerobic bacteria), MIC
B. fragilis 25285 = assay: In vitro antibacterial activity (anaerobic bacteria), MIC; settings: Bacteroides fragilis
[10] = system: Citrobacter freundii IID 976; assay: In vitro antibacterial activity (aerobic bacteria), MIC; settings: Citrobacter freundii, IID976, aerobic, Gram -, 10^6 cells/ml
[11] = system: Escherichia coli NIHJ JC-2; assay: as above; settings: NIHJJC2, aerobic, Gram -, 10^6 cells/ml
F. varium KYA 8501 = assay: In vitro antibacterial activity (anaerobic bacteria), MIC; settings: Fusobacterium varium, KYA8501
[12] = system: Bacillus subtilis PCI 219; assay: In vitro antibacterial activity (aerobic bacteria), MIC
B. distasonis 8503 = assay: In vitro antibacterial activity (anaerobic bacteria), MIC; settings: Parabacteroides distasonis, Gram -, 10^6 cells/ml
B. fragilis 0558 = assay: as above; settings: Bacteroides fragilis
[13] = system: Peptostreptococcus anaerobius KYA 27337; assay: as above
[14] = system: Alcaligenes faecalis 0114002; assay: In vitro antibacterial activity (aerobic bacteria), MIC; settings: Alcaligenes faecalis, 0114002, aerobic, Gram -, 10^6 cells/ml
C. perfringens KYA 13123 = assay: microbe, parasite or virus in culture; settings: Clostridium perfringens, KYA13123
[15] = system: Peptococcus magnus KY 017; assay: In vitro antibacterial activity (anaerobic bacteria), MIC; settings: Finegoldia magna, KY017, Gram +, 10^6 cells/ml, read-out: MIC
Protocol: (§1) Minimal inhibitory concentrations (MICs) were determined in accordance with the method recommended by Japan Society of Chemotherapy.

P. aeruginosa IFO 12689 = assay: In vitro antibacterial activity (aerobic bacteria), MIC; settings: Pseudomonas aeruginosa, IFO12689
[16] = system: Enterobacter cloacae IID 977; assay: as above
Pst micros UPI 5464-1 = assay: microbe, parasite or virus in culture
Shigella sonnei IID 969 = assay: In vitro antibacterial activity (aerobic bacteria), MIC; settings: IID969, Gram -, 10^6 cells/ml
Protocol: as §1

K. pneumoniae 1-220S = assay: as above; settings: Klebsiella pneumoniae, 1220S, Gram -, 10^6 cells/ml
Protocol: as §1

S. epidermidis IID 866 = assay: as above; settings: Staphylococcus epidermidis, IID866, Gram +, 10^6 cells/ml
Protocol: as §1

E. coli ATCC 10536 = assay: as above; settings: Escherichia coli, ATCC10536, Gram -, 10^6 cells/ml
Protocol: as §1

[17] = system: Staphylococcus aureus 209 P; assay: as above; settings: Gram +, 10^6 cells/ml
Protocol: as §1

P. mirabilis IID 994 = assay: as above; settings: Proteus mirabilis, IID994, Gram -, 10^6 cells/ml
Protocol: as §1

[18] = system: Pseudomonas aeruginosa V-1; assay: as above; settings: Pseudomonas aeruginosa, V1, aerobic; Gram -; 10^6 cells/ml; read-out: MIC
Protocol: as §1

[19] = system: Acinetobacter anitratus IID 876; assay: as above; settings: Acinetobacter calcoaceticus, IID876, Gram -, 10^6 cells/ml, read-out: MIC
Protocol: as §1

[20] = system: Proteus vulgaris IFO 3167; assay: as above; settings: IFO3167, Gram -, 10^6 cells/ml
Protocol: as §1

[21] = system: Serratia marcescens IID 618; assay: as above; settings: IID618, Gram -, 10^6 cells/ml
Protocol: as §1

[22] = system: S. aureus IID 670 (Terajima); assay: as above; settings: Staphylococcus aureus, IID670, Gram +, 10^6 cells/ml
Protocol: as §1

[23] = system: Morganella morganii IID 602; assay: as above; settings: Morganella morganii, IID602, Gram -, 10^6 cells/ml, read-out: MIC
Protocol: as §1

C. ramosum = assay: In vitro antibacterial activity (anaerobic bacteria), MIC; settings: Thomasclavelia ramosa
[24] = system: Clostridium difficile I-E; assay: as above; settings: Clostridioides difficile
P. aeruginosa IID 1210 = assay: In vitro antibacterial activity (aerobic bacteria), MIC; settings: Pseudomonas aeruginosa, IID1210, aerobic, Gram -, 10^6 cells/ml
[25] = anaerobic, Gram -, 10^6 cells/ml, read-out: MIC
[26] = aerobic, Gram -, 10^6 cells/ml, read-out: MIC
[27] = anaerobic, Gram +, 10^6 cells/ml, read-out: MIC

Cc1c(N2CCC(N)C2)c(F)cc2c(=O)c(C(=O)O)cn(C3CC3)c12 (stereo not shown) [Exp. 18, 7-(3-Amino-1-pyrrolidinyl)-1-cyclopropyl-6-fluoro-1,4-dihydro-8-methyl-4-oxo-3-quinolinecarboxylic acid]
MIC [1, 25]: 0.78 µg/mL (≈ 2.26 µM)
MIC ([2]; GM7000, anaerobic, Gram -, 10^6 cells/ml, read-out: MIC): 0.2 µg/mL (≈ 0.579 µM)
MIC (P. cepacia GIFU 518; read-out: MIC): 0.2 µg/mL (≈ 0.579 µM)
MIC ([3]; KYA10790, anaerobic, Gram -, 10^6 cells/ml, read-out: MIC): 0.1 µg/mL (≈ 0.29 µM)
MIC (P. maltophilia GIFU 2491; [26]): 0.1 µg/mL (≈ 0.29 µM)
MIC [4]: 0.1 µg/mL (≈ 0.29 µM)
MIC [5]: 0.05 µg/mL (≈ 0.145 µM)
MIC [6, 26]: 0.025 µg/mL (≈ 0.0724 µM)
MIC [7, 27]: 0.2 µg/mL (≈ 0.579 µM)
MIC [8, 27]: 0.78 µg/mL (≈ 2.26 µM)
MIC [9, 26]: 0.025 µg/mL (≈ 0.0724 µM)
MIC (B. fragilis 25285; [25]): 0.2 µg/mL (≈ 0.579 µM)
MIC ([10]; read-out: MIC): 0.025 µg/mL (≈ 0.0724 µM)
MIC ([11]; read-out: MIC): ≤ 0.0032 µg/mL
MIC (F. varium KYA 8501; [25]): 0.78 µg/mL (≈ 2.26 µM)
MIC ([12]; PCI219, aerobic, Gram +, 10^6 cells/ml, read-out: MIC): 0.025 µg/mL (≈ 0.0724 µM)
MIC (B. distasonis 8503; read-out: MIC): 0.39 µg/mL (≈ 1.13 µM)
MIC (B. fragilis 0558; [25]): 0.1 µg/mL (≈ 0.29 µM)
MIC ([13]; KYA27337, anaerobic, Gram +, 10^6 cells/ml, read-out: MIC): 0.1 µg/mL (≈ 0.29 µM)
MIC ([14]; read-out: MIC): 0.1 µg/mL (≈ 0.29 µM)
MIC (C. perfringens KYA 13123): 0.05 µg/mL (≈ 0.145 µM)
MIC [15]: 0.05 µg/mL (≈ 0.145 µM)
MIC (P. aeruginosa IFO 12689; [26]): 0.2 µg/mL (≈ 0.579 µM)
MIC ([16]; IID977, aerobic, Gram -, 10^6 cells/ml, read-out: MIC): 0.025 µg/mL (≈ 0.0724 µM)
MIC (Pst micros UPI 5464-1; [27]): 0.1 µg/mL (≈ 0.29 µM)
MIC (Shigella sonnei IID 969): 0.0125 µg/mL (≈ 0.0362 µM)
MIC (K. pneumoniae 1-220S): 0.05 µg/mL (≈ 0.145 µM)
MIC (S. epidermidis IID 866): 0.05 µg/mL (≈ 0.145 µM)
MIC (E. coli ATCC 10536): 0.0125 µg/mL (≈ 0.0362 µM)
MIC [17]: 0.05 µg/mL (≈ 0.145 µM)
MIC (P. mirabilis IID 994): 0.0125 µg/mL (≈ 0.0362 µM)
MIC [18]: 0.05 µg/mL (≈ 0.145 µM)
MIC [19]: 0.05 µg/mL (≈ 0.145 µM)
MIC [20]: 0.0125 µg/mL (≈ 0.0362 µM)
MIC [21]: 0.05 µg/mL (≈ 0.145 µM)
MIC [22]: 0.05 µg/mL (≈ 0.145 µM)
MIC [23]: 0.05 µg/mL (≈ 0.145 µM)
MIC (C. ramosum): 1.56 µg/mL (≈ 4.52 µM)
MIC [24, 27]: 0.78 µg/mL (≈ 2.26 µM)
MIC (P. aeruginosa IID 1210; read-out: MIC): 0.2 µg/mL (≈ 0.579 µM)

Cc1c(N2C[C@@H](C)[C@@H](N)C2)c(F)cc2c(=O)c(C(=O)O)cn(C3CC3)c12 (relative stereo) [Ex. 28, 7-(3,4-cis-3-Amino-4-methyl-1-pyrrolidinyl)-1-cyclopropyl-6-fluoro-1,4-dihydro-8-methyl-4-oxo-3-quinolinecarboxylic acid]
MIC [1]: 0.2 µg/mL (≈ 0.556 µM)
MIC ([2]; GM7000): 0.2 µg/mL (≈ 0.556 µM)
MIC (P. cepacia GIFU 518): 0.39 µg/mL (≈ 1.09 µM)
MIC ([3]; KYA10790): 0.1 µg/mL (≈ 0.278 µM)
MIC (P. maltophilia GIFU 2491): 0.1 µg/mL (≈ 0.278 µM)
MIC [5]: 0.0125 µg/mL (≈ 0.0348 µM)
MIC [6]: 0.025 µg/mL (≈ 0.0696 µM)
MIC [7]: 0.05 µg/mL (≈ 0.139 µM)
MIC [8]: 0.78 µg/mL (≈ 2.17 µM)
MIC [9]: 0.0125 µg/mL (≈ 0.0348 µM)
MIC (B. fragilis 25285): 0.1 µg/mL (≈ 0.278 µM)
MIC [10]: 0.0125 µg/mL (≈ 0.0348 µM)
MIC [11]: 0.0063 µg/mL (≈ 0.0175 µM)
MIC (F. varium KYA 8501): 0.78 µg/mL (≈ 2.17 µM)
MIC ([12]; PCI219): 0.0125 µg/mL (≈ 0.0348 µM)
MIC (B. distasonis 8503): 0.39 µg/mL (≈ 1.09 µM)
MIC (B. fragilis 0558): 0.1 µg/mL (≈ 0.278 µM)
MIC ([13]; KYA27337): 0.2 µg/mL (≈ 0.556 µM)
MIC [14]: 0.1 µg/mL (≈ 0.278 µM)
MIC (C. perfringens KYA 13123): 0.1 µg/mL (≈ 0.278 µM)
MIC [15]: 0.025 µg/mL (≈ 0.0696 µM)
MIC (P. aeruginosa IFO 12689): 0.39 µg/mL (≈ 1.09 µM)
MIC ([16]; IID977): 0.025 µg/mL (≈ 0.0696 µM)
MIC (Pst micros UPI 5464-1): 0.05 µg/mL (≈ 0.139 µM)
MIC (Shigella sonnei IID 969): 0.0063 µg/mL (≈ 0.0175 µM)
MIC (K. pneumoniae 1-220S): 0.05 µg/mL (≈ 0.139 µM)
MIC (S. epidermidis IID 866): 0.05 µg/mL (≈ 0.139 µM)
MIC (E. coli ATCC 10536): 0.0063 µg/mL (≈ 0.0175 µM)
MIC [17]: 0.025 µg/mL (≈ 0.0696 µM)
MIC (P. mirabilis IID 994): 0.025 µg/mL (≈ 0.0696 µM)
MIC [18]: 0.1 µg/mL (≈ 0.278 µM)
MIC [19]: 0.05 µg/mL (≈ 0.139 µM)
MIC [20]: 0.0063 µg/mL (≈ 0.0175 µM)
MIC [21]: 0.05 µg/mL (≈ 0.139 µM)
MIC [22]: 0.025 µg/mL (≈ 0.0696 µM)
MIC [23]: 0.025 µg/mL (≈ 0.0696 µM)
MIC (C. ramosum; anaerobic, Gram +, 10^6 cells/ml): 0.78 µg/mL (≈ 2.17 µM)
MIC [24]: 0.39 µg/mL (≈ 1.09 µM)
MIC (P. aeruginosa IID 1210): 0.39 µg/mL (≈ 1.09 µM)
